Assay results reported in ChEMBL document CHEMBL5532728, “Novel Tyrosine Kinase 2 Inhibitors for Treating Autoimmune and Inflammatory Diseases” (ACS Med Chem Lett, 2024).

biological target: Non-receptor tyrosine-protein kinase TYK2 (Homo sapiens, UniProt P29597); assay: Inhibition of 10-His tagged recombinant TYK2 JH2 domain (575 to 876 residues) (unknown origin) incubated for 60 mins by TR-FRET assay
Sequence (P29597 whole entry, the tested form may be a part): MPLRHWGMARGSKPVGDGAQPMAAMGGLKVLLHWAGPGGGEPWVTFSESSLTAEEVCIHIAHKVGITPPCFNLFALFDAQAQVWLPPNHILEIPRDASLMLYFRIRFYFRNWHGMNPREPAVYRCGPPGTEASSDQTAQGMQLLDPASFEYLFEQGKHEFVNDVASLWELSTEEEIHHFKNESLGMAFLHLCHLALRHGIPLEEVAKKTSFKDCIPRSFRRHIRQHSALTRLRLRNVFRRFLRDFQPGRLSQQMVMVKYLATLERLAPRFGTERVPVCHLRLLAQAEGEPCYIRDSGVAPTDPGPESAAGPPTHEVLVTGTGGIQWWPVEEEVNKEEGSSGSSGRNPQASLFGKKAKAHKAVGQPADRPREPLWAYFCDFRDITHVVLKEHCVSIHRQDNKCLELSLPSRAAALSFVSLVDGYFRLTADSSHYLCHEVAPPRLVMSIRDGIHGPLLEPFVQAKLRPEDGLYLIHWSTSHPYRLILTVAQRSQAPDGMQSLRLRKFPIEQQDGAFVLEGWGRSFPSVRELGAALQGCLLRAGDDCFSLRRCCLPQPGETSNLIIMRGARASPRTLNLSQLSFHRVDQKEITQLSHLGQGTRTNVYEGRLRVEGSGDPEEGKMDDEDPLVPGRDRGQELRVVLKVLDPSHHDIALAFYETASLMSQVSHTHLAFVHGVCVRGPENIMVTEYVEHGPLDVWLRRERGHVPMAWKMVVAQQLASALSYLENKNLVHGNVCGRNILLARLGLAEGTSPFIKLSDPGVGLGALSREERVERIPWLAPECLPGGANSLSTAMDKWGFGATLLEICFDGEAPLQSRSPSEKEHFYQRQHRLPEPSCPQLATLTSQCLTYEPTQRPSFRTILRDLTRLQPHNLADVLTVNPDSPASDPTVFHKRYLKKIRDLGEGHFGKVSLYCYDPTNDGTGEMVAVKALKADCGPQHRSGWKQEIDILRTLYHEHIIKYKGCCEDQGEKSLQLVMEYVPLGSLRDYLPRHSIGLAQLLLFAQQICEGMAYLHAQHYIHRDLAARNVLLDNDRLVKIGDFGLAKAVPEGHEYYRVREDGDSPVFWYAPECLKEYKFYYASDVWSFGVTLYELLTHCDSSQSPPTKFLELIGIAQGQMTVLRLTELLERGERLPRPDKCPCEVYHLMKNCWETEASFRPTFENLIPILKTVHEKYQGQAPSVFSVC

IC50 | SMILES
≤ 10 nM | CC(=O)Nc1cc2c(cn1)C1(CC1)CN2c1cc(C)nc(C2CCC2)n1
≤ 10 nM | CC(=O)Nc1cc2c(cn1)C1(CC1)CN2c1cc(NC2CCSC2)nc(C(C)(F)F)n1 (stereo unspecified)
≤ 10 nM | CSc1nc(C)cc(N2CC3(CC3)c3cnc(NC(C)=O)cc32)n1
≤ 10 nM | CC(=O)Nc1cc2c(cn1)C1(CC1)CN2c1nc(C2CCOC2)c(C)s1 (stereo unspecified)
≤ 10 nM | CC(=O)Nc1cc2c(cn1)C1(CC1)CN2c1cc(-c2ncn(C)n2)nc(C(C)(F)F)n1
≤ 10 nM | CC(=O)Nc1cc2c(cn1)C1(CC1)CN2c1cccc(S(C)(=O)=O)n1
